Assay results from US12728111B2, “Electrophilic compounds and electrophilic prodrugs for treating aneurysm” (University of Pittsburgh—Of the Commonwealth System of …, priority 2020, dated 2026).

Tests used:
[1] = tested on: Vcam1, MCP1, Icam1 gene expression in suprarenal aorta; test: Real-time PCR gene expression in mouse suprarenal aorta; assay type: in vivo
Description: FIG. 2. […] (A) Quantification of gene expression levels in the mice suprarenal aorta region by real-time PCR (n=3 to 4). (B, C) Serum cytokines levels measured by ELISA (n=8 to 11). (D) FACS of single cells isolated from the mice suprarenal aorta region. Each sample is the pool of cells from three mice (n=3). (E, F) Quantification of the percentage of CD45+ leukocytes and CD64+, CD11c+M1-like macrophages in total cells from the FACS analysis. Ordinary one-way ANOVA followed by Tukey's test was performed for (A), (E) and (F). For ELISA in (B) and (C), to avoid the effect of the non-detected data point, a non-parametric Kruskal-Wallis test followed by Dunn's multiple comparisons was performed by adding zero to the missing data point. Data presented as mean±SEM. A p<0.05 for both the main test and post hoc test was considered statistically significant.
Ten weeks old male C57BL/6J mice were purchased from The Jackson Laboratory. The murine AAA model induced by AngII/PCSK9 gain-of-function mutation is well-established. After acclimation for 1 week, mice were fed a western diet (TD.88137, Envigo) and intraperitoneally injected with 2×1011 genomic copies of AAV-PCSK9.D377Y (AAV serotype 8, Penn Vector Core). Two weeks later, each mouse was subcutaneously implanted with two osmotic pumps (Model #2004, Alzet). One was loaded with AngII (#H-1706, Bachem), releasing at a rate of 1,500ng/kg/min, while the other one was loaded with PEG-400, OA or NO2—OA at a delivery rate of 5 mg/kg/day for OA or NO2—OA. After 4-weeks infusion, mice were euthanized and the maximal outer diameter of the suprarenal aorta was assessed with a digital caliper by a third person blinded to the treatment. Suprarenal aortas with a maximal diameter ≥50% larger than standard size (≥1.2 mm) were considered as abdominal aortic aneurysms. […]
Mice suprarenal aortas were collected after the measurement of their diameter. […] Gene expression was quantified in triplicates by quantitative real-time PCR (qPCR) using IQ SYBR Green Supermix (#1708882, Bio-Rad) with the indicated gene primers.

oxLDL-treated BMDMs = test: Cytokine ELISA in medium of oxLDL-treated BMDMs; assay type: cell-based, mouse; settings: 2.5 μM, 8 h oxLDL, vs control
Method: FIG. 3. NO2—OA prevents oxLDL-induced NFκB activation and pro-inflammatory cytokine production. Primary BMDMs were pretreated with vehicle, OA (2.5 μM) or NO2—OA (2.5 μM) for 1 h, followed by treatment of oxLDL (50 to 100 μg/ml) for the indicated times. (A, B) Nuclear (A) and cytoplasmic protein (B) fractions were isolated 1 h after oxLDL treatment and subjected to western blot with antibodies against p65, lamin a/c (nuclear marker) and GAPDH (cytosolic marker). Representative western blot images of three independent experiments are shown. (C) Quantification of the p65 nuclear to cytoplasmic ratio by image studio (normalized by the internal control, n=3). (D-F) Following 8 h of oxLDL treatment, levels of IL6, MCP1 and TNFα in the cell medium were measured by ELISA (n=4). (G) Real-time PCR quantification of gene expression levels of IL1b and Mmp9 in total mRNA extracted from the BMDMs. (C) Ordinary one-way ANOVA followed by Tukey's test was performed. As of (D-F), the basal level contains several non-detectable values, so ordinary one-way ANOVA followed by correction of FDR were performed for the oxLDL-treated groups only. Ordinary one-way ANOVA followed by Tukey's test was performed for (G). Data presented as mean±SEM. A p<0.05 for both the main test and post hoc test was considered statistically significant.
Murine RAW 264.7 cell line, 293T/17 cell line and Primary Umbilical Vein Endothelial Cells (PCS-100-010, HUVECs) were purchased from ATCC (Manassas, VA) and cultured in DMEM (Gibco) with 10% FBS (Thermo Fisher Scientific) or M199 (Gibco) supplemented with 20% FBS for HUVECs. BMDMs isolated from 12 to 16-week-old C57BL/6 wild type mice were cultured in bone marrow macrophage differentiation media. The differentiation medium was prepared by adding L-cell conditioned media (30%), non-essential amino acids (#11140-050, Gibco), sodium pyruvate (1 mM, #11360-070, Gibco), 2-Mercaptoethanol (55 μM) and 10% FBS into Iscove's Modified Dulbecco's Medium (IMDM, Gibco).

MMP9 = test: Gelatin zymography in BMDMs, MMP9; assay type: cell-based, mouse; settings: 2.5 μM, 12 h
Method: FIG. 4. NO2—OA inhibits PGE2-dependent EP4 cAMP downstream signaling. (A) Three parameters nonlinear regression of EP4 global fitting dose-response curve. […] (B) HTRF assay of cAMP-Gs coupled receptor. […] (D) Representative figure of gelatin zymography indicating MMP 2/9 activity. BMDMs were incubated with L-902,688 (100 nM) plus vehicle, OA (2.5 μM) or NO2—OA (2.5 μM) for 12 h, and MMP 2&9 activity was measured by gelatin zymography. For (A) and (B), three or four parameters, global or separate fitting, constraints, and the significance of EC50 were determined in Prism. Data presented as mean±SEM. A p<0.05 was considered statistically significant.
Freshly differentiated BMDMs were cultured in the bone marrow macrophage-differentiation media until 80% confluence. […] Then, the supernatant was collected and centrifuged to remove any residual debris. Measurement of MMP2 and MMP9 activity was performed by running the supernatant (using detergent-free loading buffer) in 1% gelatin gel, followed by staining with Coomassie blue.

[2] = cited from earlier work

CCCCCCCCC(=CCCCCCCCC(=O)O)[N+](=O)[O-] [NO2—OA, 10-nitro-octadec-9-enoic acid]
expression of intercellular adhesion molecule 1 (Icam1) ([1]; vs vehicle): not statistically significant
expression of MCP1 gene ([1]; vs vehicle control): significantly decreased
expression of vascular cell adhesion protein 1 (Vcam1) gene ([1]; vs vehicle control): significantly decreased
IL6 level in oxLDL-treated cell medium (oxLDL-treated BMDMs): significant decrease
MCP1 level in oxLDL-treated cell medium (oxLDL-treated BMDMs): marginally significant reduction
TNFα levels in oxLDL-treated cell medium (oxLDL-treated BMDMs): no significant difference
PGE2-upregulated MMP9 (gelatin zymography) (MMP9): significantly diminished
Nrf2-regulated genes and heat shock response in peripheral blood mononuclear cells ([2]; administration in humans): induces
circulating interleukin 6 (IL6) level ([2]; human volunteers): decreased
circulating monocyte chemoattractant protein 1 (MCP1) level ([2]; human volunteers): decreased
safety in Phase 1 human study ([2]; within a therapeutic window 25-450 mg/day): safe
